Test results as given in US11932651B1, “2-benzo-[3,4-B]quinolino-[b,g]indeno[1′,2′:3,4]fluoreno-[1,2-d]oxonine-24-chloro-5,11,16,21-tetraone as an antimicrobial compound” (KING FAISAL UNIVERSITY, priority 2023, dated 2024).

Experiments:
Candida albicans = experiment: Antimicrobial screening by agar dilution, Candida albicans; format: cell-based; details: after 10, 20, 40 and 60 minutes at all dilutions 1:100, 1:200, 1:400, 1:800
Description: (§1) The antibacterial properties of the synthesized compound 2-benzo-[3,4-b]quinolino-[b,g]indeno[1′,2′:3,4]fluoreno-[1,2-d]oxonine-24-chloro-5,11,16,21-tetraone were studied by the method of agar dilution. Test solutions of each compound was prepared in concentration of 1% using dimethylformamide as a solvent then they are diluted in physiological solution to obtain the final experimental dilutions 1:100, 1:200, 1:400, 1:800. The effect of these substances are compared with furacillin in a controllable study. The testing microbes used were gram positive bacteria Staphylococcus aureus, gram negative bacteria Pseudomonas aeruginosa and Escherichia coli and Candida albicans fungus. The experiments used for this survey were meat-pentonlu agar (EPA) for cultivation of bacteria and Saburo environment for the fungus. Each experiment used 1 mL of test solution on each plate […]. Two drops of emulsified with microbes feel were added. All experimental samples were taken from the agar after 10, 20, 40, 60 minutes in the environment on the basis of Patrk planted. The bacteria were cultivated at a temperature of 37° C. for 1 day and the mushroom was kept in a thermostat for […] at a temperature of 28° C. Then results were checked.

Escherichia coli = experiment: Antimicrobial screening by agar dilution, Escherichia coli; format: cell-based; details: after 10, 20, 40 and 60 minutes at all dilutions 1:100, 1:200, 1:400, 1:800
Description: as §1

Staphylococcus aureus = experiment: Antimicrobial screening by agar dilution, Staphylococcus aureus; format: cell-based; details: after 10, 20, 40 and 60 minutes at all dilutions 1:100, 1:200, 1:400, 1:800
Description: as §1

Pseudomonas aeruginosa = experiment: Antimicrobial screening by agar dilution, Pseudomonas aeruginosa; format: cell-based; details: after 10, 20, 40 and 60 minutes at all dilutions 1:100, 1:200, 1:400, 1:800
Description: as §1

melting point: 241 °C
Compound: O=C1Oc2nc3ccc(Cl)cc3cc2-c2c(c3c4ccccc4c(=O)c3c3c2c(=O)c2ccccc23)C(=O)c2ccccc21 [2-benzo-[3,4-b]quinolino-[b,g]indeno[1′,2′:3,4]fluoreno-[1,2-d]oxonine-24-chloro-5,11,16,21-tetraone]
inhibition activity, Candida albicans (Candida albicans): highest inhibition activity | inhibition activity, Escherichia coli (Escherichia coli): highest inhibition activity | inhibition activity, Staphylococcus aureus (Staphylococcus aureus): highest inhibition activity | inhibition activity, Pseudomonas aeruginosa (Pseudomonas aeruginosa): highest inhibition activity
